Key:
in vivo = details: male, NodCB17 SCID, mouse, iv, 0.061 nmol, total radioactivity
Excerpt: Searching for a preliminary proof of concept of the intended pre-targeting approach, we synthesized a clickable TCO-containing bombesin antagonist (TCO-PEG4-AR) based on the potent GRPr antagonist AR reported in the literature, as described in the Supplementary Material ([29]). We hypothesized that the antagonist, when bound to the surface of human PC3 cells, would be available for the in vivo click reaction with the Tz-containing radiocomplex. As a control, the biodistribution data of the preformed [^90Y]Y-DOTA-Tz-TCO-PEG4-AR in PC3-xenografts bearing mice at 15 min and 1 h p.i. are available in Supplementary Table 5. For the pre-targeting approach, the tumor-bearing mice were injected with 1 nmol of the clickable bombesin antagonist and, after 4 h, we injected the radiocomplex [^90Y]Y-DOTA-Tz. […] In parallel, pre-targeting experiments based on ex-vivo biodistribution studies were performed in the same way for the congener [^111In]In-DOTA-Tz, and using the same animal model. […]
from whole animal body. Blood samples were taken by cardiac puncture at sacrifice. Tissue samples of the main organs were then dissected, weighted and counted in a gamma counter (Berthold).
Biodistribution results were expressed as percentage of the injected dose per gram tissue (%I.D./g) in the form of an average with standard deviation (%ID/g; mean ± standard deviation (SD).
Biodistribution in PC3 bearing mice
Male, 5-6 weeks old NodCB17 SCID mice were obtained from Janvier Lab., France. Mice were housed under pathogen-free conditions with food and water ad libitum, and a 12-12 hour light-dark cycle.
Veterinarian staff and investigators observed the mice daily to ensure animal welfare and determine if human endpoints (e.g., hunched and ruffled appearance, apathy, ulceration, severe weight loss, tumour burden) were reached. The mice were subcutaneously injected in the shoulder with 200 µL bolus containing a suspension of […] freshly harvested human prostatic cell line PC3 in Matrigel™ Basement Membrane Matrix (BD Sciences) under anaesthesia with 2% isoflurane. The animals were kept under pathogen-free condition and experiments were performed 2–3 weeks later when a tumour reached a volume of approximate 390 ± 190 mm3. Animals were allocated into treatment groups using a complete […]
The examination of physiological distribution for [90Y]Y-DOTA-Tz were carried out on 4 mice (n = 4). For the control bolus, 0.061 nmol, 0.1 mL, 7.5 µCi of [90Y]Y-DOTA-Tz was intravenously injected by tail vein. The examination of physiological distribution for [90Y]Y-DOTA-Tz-TCO-PEG4-AR were carried out on groups of 8 mice (n = 4). For the control bolus, 0.061 nmo l, 0.1 mL, 7.5 µCi of 90Y-DOTA-Tz TCO-PEG4-AR was intravenously injected by tail vein. At appropriate time points (15 min, 1h or 2h after-injection), the animals were euthanized, tissues of interest were dissected, weighted, and […]

[1] = Biodistribution of [111In]In-radiocomplexes in healthy mice; type: in vivo
Method: We performed a biodistribution study of the four [^111In]In-radiocomplexes in healthy mice to determine the clearance rate from systemic blood circulation and the tissue/organ distribution over time. […] The urinary tract was identified as the main excretory pathway since the highest % I.D./g values were found in the kidneys for all the radiocomplexes, associated to rapid radioactivity excretion both at 15 min and 1 h p.i. […] page 9: from whole animal body. Blood samples were taken by cardiac puncture at sacrifice. […] The animals were kept under […] volume of approximate 390 ± 190 mm3. […] […] carried out on groups of 8 mice (n = 4). […] The animals were weighed and dissected.

CC(C)C[C@H](NC(=O)C[C@H](O)[C@H](CC(C)C)NC(=O)[C@H](Cc1c[nH]cn1)NC(=O)CNC(=O)[C@@H](NC(=O)[C@H](C)NC(=O)[C@H](Cc1c[nH]c2ccccc12)NC(=O)[C@H](CCC(N)=O)NC(=O)[C@@H](Cc1ccccc1)NC(=O)CCOCCOCCOCCOCCNC(=O)OC1CCCC2=CNN=C(c3ccc(CNC(=O)CN4CCN(CC(=O)O)CCN(CC(=O)O)CCN(CC(=O)O)CC4)cc3)C2CC1)C(C)C)C(N)=O (stereo partly shown) [[90Y]Y-DOTA-Tz-TCO-PEG4-AR, metal not drawn] gave a tissue uptake at 0.25 h (in vivo; blood) of 14.9 ± 3.89 %ID/g, a tissue uptake at 1 h (in vivo; blood) of 2.65 ± 0.65 %ID/g and a tissue uptake at 0.25 h (in vivo; bone) of 3.15 ± 1.87 %ID/g. For the same compound, the tissue uptake at 1 h (in vivo; bone) was 0.7 ± 0.29 %ID/g, the tissue uptake at 0.25 h (in vivo; heart) was 3.55 ± 0.62 %ID/g and the tissue uptake at 1 h (in vivo; heart) was 0.61 ± 0.27 %ID/g. The tissue uptake at 0.25 h (in vivo; kidneys) was 20.5 ± 7.97 %ID/g, the tissue uptake at 1 h (in vivo; kidneys) was 2.94 ± 0.44 %ID/g and the tissue uptake at 0.25 h (in vivo; large intestine) was 3.98 ± 0.68 %ID/g. The tissue uptake at 1 h (in vivo; large intestine) was 0.67 ± 0.19 %ID/g, the tissue uptake at 0.25 h (in vivo; liver) was 7.35 ± 3.27 %ID/g and the tissue uptake at 1 h (in vivo; liver) was 0.82 ± 0.1 %ID/g. The tissue uptake at 0.25 h (in vivo; lung) was 7.48 ± 1.92 %ID/g, the tissue uptake at 1 h (in vivo; lung) was 1.57 ± 0.63 %ID/g and the tissue uptake at 0.25 h (in vivo; muscle) was 2.36 ± 0.33 %ID/g. For the same compound, the tissue uptake at 1 h (in vivo; muscle) was 0.41 ± 0.12 %ID/g, the tissue uptake at 0.25 h (in vivo; pancreas) was 32 ± 3.86 %ID/g and the tissue uptake at 1 h (in vivo; pancreas) was 14 ± 1.99 %ID/g. The tissue uptake at 0.25 h (in vivo; prostate) was 26.3 ± 18 %ID/g, the tissue uptake at 1 h (in vivo; prostate) was 3.48 ± 3.63 %ID/g and the tissue uptake at 0.25 h (in vivo; salivary gland) was 3.69 ± 1.39 %ID/g. It also gave a tissue uptake at 1 h (in vivo; salivary gland) of 0.6 ± 0.18 %ID/g, a tissue uptake at 0.25 h (in vivo; small intestine) of 2.74 ± 0.28 %ID/g and a tissue uptake at 1 h (in vivo; small intestine) of 0.99 ± 0.32 %ID/g. For the same compound, the tissue uptake at 0.25 h (in vivo; spleen) was 4.03 ± 2.21 %ID/g, the tissue uptake at 1 h (in vivo; spleen) was 1.08 ± 0.39 %ID/g and the tissue uptake at 0.25 h (in vivo; stomach) was 4.72 ± 0.38 %ID/g. For the same compound, the tissue uptake at 1 h (in vivo; stomach) was 1.95 ± 0.39 %ID/g, the tissue uptake at 0.25 h (in vivo; thyroid) was 6.57 ± 3.95 %ID/g and the tissue uptake at 1 h (in vivo; thyroid) was 0.99 ± 0.5 %ID/g. For the same compound, the tissue uptake at 0.25 h (in vivo; tumour) was 6.32 ± 1.28 %ID/g, the tissue uptake at 1 h (in vivo; tumour) was 2.26 ± 0.93 %ID/g and the “radiochemical purity after incubation in HS” value (human serum, 37 °C, 6 days, ITLC (citrate buffer pH 5.5, 0.1 M)) was “above 99%”. The “stability of the preparation after radiolabelling” value (room temperature, HPLC) was “stable up to 24 hours”.
For O=C([O-])CN1CCN(CC(=O)[O-])CCN(C(CCC(=O)NCCOCCOCCOCCOCCOCCOCCOCCOCCOCCOCCOCCNC(=O)CCCC(=O)NCc2ccc(-c3nncnn3)cc2)C(=O)[O-])CCN(CC(=O)[O-])CC1.[111In+3] (stereo not shown) [[111In]In-DOTAGA-PEG-Tz], the “Biodistribution: Blood” value ([1]; 15 min p.i.) was 3.7 ± 0.6 % I.D./g, the “Biodistribution: Bone” value ([1]; 15 min p.i.) was 0.8 ± 0.2 % I.D./g and the “Biodistribution: Heart” value ([1]; 15 min p.i.) was 1.2 ± 0.6 % I.D./g. The “Biodistribution: Intestine” value ([1]; 15 min p.i.) was 0.31 ± 0.05 % I.D./g, the “Biodistribution: Kidney” value ([1]; 15 min p.i.) was 4.8 ± 0.7 % I.D./g and the “Biodistribution: Liver” value ([1]; 15 min p.i.) was 0.8 ± 0.1 % I.D./g. For the same compound, the “Biodistribution: Lung” value ([1]; 15 min p.i.) was 1.4 ± 0.2 % I.D./g, the “Biodistribution: Muscle” value ([1]; 15 min p.i.) was 0.86 ± 0.07 % I.D./g and the “Biodistribution: Pancreas” value ([1]; 15 min p.i.) was 0.53 ± 0.05 % I.D./g. The “Biodistribution: Spleen” value ([1]; 15 min p.i.) was 0.6 ± 0.2 % I.D./g, the “Biodistribution: Stomach” value ([1]; 15 min p.i.) was 1.0 ± 0.5 % I.D./g and the Excretion ([1]; 15 min p.i.) was 62.7 ± 2.6 % I.D. The “Biodistribution: Blood” value ([1]; 1 h p.i.) was 0.7 ± 0.4 % I.D./g, the “Biodistribution: Bone” value ([1]; 1 h p.i.) was 0.17 ± 0.09 % I.D./g and the “Biodistribution: Heart” value ([1]; 1 h p.i.) was 0.13 ± 0.08 % I.D./g. For the same compound, the “Biodistribution: Intestine” value ([1]; 1 h p.i.) was 0.4 ± 0.2 % I.D./g, the “Biodistribution: Kidney” value ([1]; 1 h p.i.) was 2.2 ± 0.6 % I.D./g and the “Biodistribution: Liver” value ([1]; 1 h p.i.) was 0.3 ± 0.2 % I.D./g. For the same compound, the “Biodistribution: Lung” value ([1]; 1 h p.i.) was 0.3 ± 0.2 % I.D./g, the “Biodistribution: Muscle” value ([1]; 1 h p.i.) was 0.2 ± 0.1 % I.D./g and the “Biodistribution: Pancreas” value ([1]; 1 h p.i.) was 0.12 ± 0.07 % I.D./g. The “Biodistribution: Spleen” value ([1]; 1 h p.i.) was 0.11 ± 0.05 % I.D./g, the “Biodistribution: Stomach” value ([1]; 1 h p.i.) was 1.1 ± 0.8 % I.D./g and the Excretion ([1]; 1 h p.i.) was 87.1 ± 6.9 % I.D.

— publication PMC8225959, “Clickable Radiocomplexes With Trivalent Radiometals for Cancer Theranostics: In vitro and in vivo Studies” (Frontiers in Medicine, 2021)
